Experimental data reported in US20140031283A1, “ANTICANCER FUSION PROTEIN” (ADAMED SP. Z O.O., priority 2011, published 2014).

Assays:
[1] = tested on: human colon cancer HCT116; assay: HCT116 colon cancer xenograft in Crl:SHO-Prkdc^scidHr^hr mice; assay type: in vivo; settings: 65 mg/kg i.v., 10 daily applications with a two-day break, 24th day
Description: (§1) Antitumor activity of protein preparations was tested in a mouse model of human colon cancer HCT116, human colon cancer Colo205, human colon cancer model SW620, human liver cancer model HepG2, and human lung cancer models NCI-H460 and NCI-H460-Luc2.
The HCT116 (in mice Crl:SHO-Prkdc^scidHr^hr) were alternatively maintained in McCoy's medium (Hyclone, Logan, Utah, USA) supplemented with 10% fetal calf serum and 2 mM glutamine. On the day of mice grafting, the cells were detached from the support by washing the cells with trypsin (Invitrogen), then the cells were centrifuged at 1300 rpm, 4° C., 8 min., suspended in HBSS buffer (Hanks medium), counted and diluted to the concentration of 25×10^6 cells/ml. SW620 cells were maintained in DMEM (HyClone, Logan, Utah, USA) supplemented with 10% fetal calf serum and 2 mM glutamine. On the day of mice grafting, the cells were detached from the support by washing the cells with trypsin (Invitrogen), then the cells were centrifuged at 1300 rpm, 4° C., 8 min., suspended in HBSS buffer (Hanks medium), counted and diluted to the concentration of 25×10^6 cells/ml.
Examination of antitumor activity of proteins of the invention was conducted on 7-9 week-old CD-nude (Crl:CD1-Foxn1^nu 1) or 4-6 week-old Crl:SHO-Prkdc^scidHr^hr mice obtained from Charles River Germany. […]

[2] = tested on: human colon cancer Colo205; assay: Colo205 colon cancer xenograft in Crl:SHO-Prkdc^scidHr^hr mice; assay type: in vivo; settings: 30 mg/kg i.v. six times every second day, 33rd day
Description: as §1
The HCT116 (in mice Crl:CD1-Foxn1^nu 1), Colo205, NCI-H460, NCI-H460-Luc2 cells were maintained in RPMI 1640 medium (Hyclone, Logan, Utah, USA) mixed in the ratio of 1:1 with Opti-MEM (Invitrogen, Cat.22600-134) supplemented with 10% fetal calf serum and 2 mM glutamine. On the day of mice grafting, the cells were detached from the support by washing the cells with trypsin (Invitrogen), then the cells were centrifuged at 1300 rpm, 4° C., 8 min., suspended in HBSS buffer (Hanks medium), counted and diluted to the concentration of 25×10^6 cells/ml.
Examination of antitumor activity of proteins of the invention was conducted on 7-9 week-old CD-nude (Crl:CD1-Foxn1^nu 1) or 4-6 week-old Crl:SHO-Prkdc^scidHr^hr mice obtained from Charles River Germany. Mice were kept under specific pathogen-free conditions with free access to food and demineralised water (ad libitum). All experiments on animals were carried in accordance with the guidelines: “Interdisciplinary Principles and Guidelines for the Use of Animals in Research. […]

## rhTRAIL114-281: recombinant human soluble TRAIL, amino acids 114-281 of hTRAIL, used as the comparative reference
[1]
  tumor growth inhibition (TGI) relative to the control: 38%
[2]
  tumor growth inhibition (TGI) relative to the control: 18.8%
